# Tests used:
# Assay in all cases: relative viability (nuclei count vs DMSO), 5 days (fraction); higher = more cells survive
# QS11 + Pictilisib = compound: C1CC2=C(C1)C=C(C=C2)OC3=NC(=C4C(=N3)N(C=N4)CC5=CC=C(C=C5)C6=CC=CC=C6)N[C@@H](CC7=CC=CC=C7)CO [QS11] + CS(=O)(=O)N1CCN(Cc2cc3nc(-c4cccc5[nH]ncc45)nc(N4CCOCC4)c3s2)CC1 [Pictilisib] (partner 1 µM)
# Procedure, shortened: (§1)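 Values are medians from duplicate plates. Each reflects relative viability, defined as the nuclei count of treated wells over that of vehicle wells. Lung cancer cell lines in 1536-well plates were pin-tool dosed one day after seeding with one drug alone or with a fixed anchor-drug dose plus five library-drug doses (not always all listed) in √10 steps, then fixed, stained and imaged at 4× after 5 days.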
# AZ628 + Phenformin = compound: CC1=C(C=C(C=C1)NC(=O)C2=CC(=CC=C2)C(C)(C)C#N)NC3=CC4=C(C=C3)N=CN(C4=O)C [AZ628] + N=C(N)NC(=N)NCCc1ccccc1 [Phenformin] (partner 250 µM)
# Procedure, shortened: as §1
# AZ628 + Olaparib = compound: CC1=C(C=C(C=C1)NC(=O)C2=CC(=CC=C2)C(C)(C)C#N)NC3=CC4=C(C=C3)N=CN(C4=O)C [AZ628] + O=C(c1cc(Cc2n[nH]c(=O)c3ccccc23)ccc1F)N1CCN(C(=O)C2CC2)CC1 [Olaparib] (partner 8 µM)
# Procedure, shortened: as §1
# [1] = compound: C[As](C)SC[C@H](NC(=O)CC[C@H](N)C(=O)O)C(=O)NCC(=O)O [Darinaparsin] + C[C@@H](Oc1cc(-c2cnn(C3CCNCC3)c2)cnc1N)c1c(Cl)ccc(F)c1Cl [Crizotinib] (partner 1 µM)
# Procedure, shortened: as §1
Cell Line,relative viability (QS11 + Pictilisib; first compound 0.08 µM),relative viability (QS11 + Pictilisib; first compound 0.253 µM),relative viability (QS11 + Pictilisib; first compound 2.53 µM),relative viability (QS11 + Pictilisib; first compound 8 µM),relative viability (AZ628 + Phenformin; first compound 0.08 µM),relative viability (AZ628 + Phenformin; first compound 0.253 µM),relative viability (AZ628 + Phenformin; first compound 0.8 µM),relative viability (AZ628 + Phenformin; first compound 2.53 µM),relative viability (AZ628 + Phenformin; first compound 8 µM),relative viability (AZ628 + Olaparib; first compound 0.08 µM),relative viability (AZ628 + Olaparib; first compound 0.253 µM),relative viability (AZ628 + Olaparib; first compound 0.8 µM),relative viability (AZ628 + Olaparib; first compound 2.53 µM),relative viability (AZ628 + Olaparib; first compound 8 µM),relative viability ([1]; first compound 0.08 µM),relative viability ([1]; first compound 0.8 µM),relative viability ([1]; first compound 2.53 µM),relative viability ([1]; first compound 8 µM),relative viability (QS11 + Pictilisib; first compound 0.8 µM)
H3255,0.37,0.523,0.541,0.537,0.41,0.33,0.337,0.393,0.302,0.561,0.557,0.596,0.611,0.427,1.14,0.773,0.789,0.895,
LOU-NH91,0.541,0.484,0.494,0.54,0.749,0.654,0.776,0.661,0.438,0.935,0.94,0.965,0.936,0.764,0.779,0.759,0.75,0.737,
NCI-H2126,0.489,0.444,0.501,0.476,0.524,0.542,0.491,0.484,0.545,0.932,0.875,0.874,0.935,0.972,1.14,1.01,0.93,1.12,0.503
PC-14,0.658,0.639,0.569,0.604,0.638,0.438,0.498,0.599,0.416,0.376,0.258,0.243,0.259,0.16,1.26,0.797,0.72,1.01,0.667
EMC-BAC-2,0.535,0.486,0.604,0.442,0.584,0.57,0.432,0.602,0.505,0.566,0.581,0.612,0.558,0.746,0.812,0.772,0.676,0.801,0.569
HCC-78,0.206,0.185,0.222,0.29,0.814,0.631,0.767,0.705,0.726,0.94,0.808,0.807,0.786,0.903,0.36,0.316,0.332,0.348,0.206
SK-LU-1,0.455,0.679,0.552,0.531,,0.433,0.488,0.348,0.253,0.376,0.37,0.44,0.379,0.315,1.15,1.06,0.669,0.946,0.534
IA-LM,0.387,0.343,0.257,0.354,,,,,,1.03,0.815,0.846,0.875,0.363,1.06,0.645,0.788,0.923,
NCI-H1395,,0.614,0.645,0.619,0.478,0.39,0.423,0.436,0.422,0.478,0.458,0.443,0.461,0.447,,,,,0.772
Calu-6,1.02,0.907,1.15,1,,,,,,0.595,0.491,0.496,0.41,0.16,1.17,0.857,0.665,0.751,0.918
NCI-H1563,0.718,0.703,0.586,0.617,0.694,0.661,0.672,0.654,0.679,,,,,,0.903,0.768,0.87,0.874,0.68
NCI-H1648,,,,,,,,,,1.09,0.62,1.01,0.767,0.556,,,,,
NCI-H1793,0.259,0.329,0.309,0.31,0.433,0.25,0.333,0.314,0.302,0.971,0.805,0.717,0.819,0.445,,,,,0.356
NCI-H2342,,,,,0.657,0.469,0.653,0.65,0.646,0.447,0.401,0.479,0.449,0.431,,,,,
NCI-H522,,,,,0.628,0.516,0.617,0.542,0.663,0.643,0.691,0.602,0.689,0.522,,,,,
NCI-H1703,0.281,0.242,0.253,0.344,,,,,,0.239,0.216,0.216,0.178,0.177,1.45,0.859,0.483,0.607,0.264
NCI-H1299,0.725,0.791,0.736,0.567,,,,,,1.12,1.18,1.12,1.27,0.628,1.09,0.981,0.871,1.1,0.648
NCI-H1623,,,,,0.6,0.524,0.382,0.505,0.437,,,,,,,,,,
EBC-1,0.331,0.266,0.454,0.478,,,,,,0.609,0.615,0.737,0.684,0.314,0.196,0.19,0.181,0.166,0.404
SW 900,,,,,0.536,0.691,0.561,0.422,0.399,1.04,0.878,1.02,0.951,0.683,,,,,

# From the supplement of paper PMC10307832
